# Measurements taken from patent publication US6627628B1, “Substituted 4-amino-2-aryl-cyclopenta[d]pyrimidines, their production and use and pharmaceutical preparations containing same” (Aventis Pharma Deutschland, GmbH, priority 1998, dated 2003).
# How the values were obtained:
# [1] = molecular target: T1, soluble guanylate cyclase (sGC) (Bos taurus, UniProt P16068+P19687); assay: Activation of soluble guanylate cyclase (cGMP enzyme immunoassay); format: biochemical; conditions: sGC isolated from bovine lung; test substance 50 μM; 5% DMSO; 37° C., 15 to 20 minutes; [cGMP]test substance/[cGMP]control (basal enzyme activity)
# T1 construct: The sGC employed had been isolated from bovine lung; from tissue; host or cells: bovine lung
# T1 sequence (P19687 1-691): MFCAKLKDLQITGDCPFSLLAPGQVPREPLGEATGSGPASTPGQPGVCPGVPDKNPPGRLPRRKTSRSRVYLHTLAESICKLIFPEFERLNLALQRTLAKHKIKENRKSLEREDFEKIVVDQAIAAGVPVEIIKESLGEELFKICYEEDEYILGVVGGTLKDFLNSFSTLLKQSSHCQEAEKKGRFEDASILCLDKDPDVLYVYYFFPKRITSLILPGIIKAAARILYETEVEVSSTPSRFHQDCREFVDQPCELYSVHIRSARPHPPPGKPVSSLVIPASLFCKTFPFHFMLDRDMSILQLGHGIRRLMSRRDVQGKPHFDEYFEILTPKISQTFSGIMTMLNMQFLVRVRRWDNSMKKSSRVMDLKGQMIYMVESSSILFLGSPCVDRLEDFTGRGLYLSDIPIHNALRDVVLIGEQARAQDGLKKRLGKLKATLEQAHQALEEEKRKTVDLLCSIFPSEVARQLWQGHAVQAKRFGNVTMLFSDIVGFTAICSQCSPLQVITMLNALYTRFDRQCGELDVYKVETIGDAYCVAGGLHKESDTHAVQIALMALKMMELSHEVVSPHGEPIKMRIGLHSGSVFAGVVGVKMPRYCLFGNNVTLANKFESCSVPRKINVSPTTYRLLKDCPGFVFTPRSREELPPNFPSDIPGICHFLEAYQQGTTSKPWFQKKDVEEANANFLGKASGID
# T1 sequence (P16068 1-619): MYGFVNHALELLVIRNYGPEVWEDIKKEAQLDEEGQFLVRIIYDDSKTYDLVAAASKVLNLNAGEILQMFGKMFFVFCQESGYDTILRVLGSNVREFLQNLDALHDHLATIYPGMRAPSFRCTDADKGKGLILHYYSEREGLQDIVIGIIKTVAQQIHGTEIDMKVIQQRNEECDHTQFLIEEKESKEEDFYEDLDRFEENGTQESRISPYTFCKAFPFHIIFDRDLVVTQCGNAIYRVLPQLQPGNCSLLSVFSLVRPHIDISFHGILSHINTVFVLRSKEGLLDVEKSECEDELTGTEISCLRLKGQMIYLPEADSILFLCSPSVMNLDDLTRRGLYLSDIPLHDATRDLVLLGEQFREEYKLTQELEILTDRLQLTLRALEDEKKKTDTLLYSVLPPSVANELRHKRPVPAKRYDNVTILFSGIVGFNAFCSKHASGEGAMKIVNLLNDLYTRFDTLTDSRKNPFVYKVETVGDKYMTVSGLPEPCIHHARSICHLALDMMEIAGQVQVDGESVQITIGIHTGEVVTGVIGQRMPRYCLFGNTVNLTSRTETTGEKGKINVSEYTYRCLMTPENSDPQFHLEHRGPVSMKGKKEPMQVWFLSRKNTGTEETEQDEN
# Protocol: Activation of Soluble Guanylate Cyclase
# The activation of soluble guanylate cyclase (sGC), which catalyzes the conversion of guanosine triphosphate (GTP) to cyclic guanosine monophosphate (cGMP) and pyrophosphate, by the compounds according to the invention was quantified with the aid of an enzyme immunoassay (EIA) from Amersham. For this, the test substances were first incubated with sGC in microtiter plates and then the quantity of the resulting cGMP was determined.
# The test solutions (100 μl per well) contained 50 mM triethanolamine (TEA) buffer (pH 7.5), 3 mM MgCl2, 3 mM reduced glutathione (GSH), 0.1 mM GTP, 1 mM 3-isobutyl-1-methylxanthine (IBMX), suitably diluted enzyme solution and the test substance or, in the control experiments, solvent. The test substances were dissolved in dimethyl sulfoxide (DMSO) and the solution was diluted with DMSO/water such that the final concentration c of test substance in the test batch was 50 μM. The DMSO concentration in the test batch was 5% (v/v). The reaction was started by addition of the sGC. The reaction mix was incubated at 37° C. for 15 to 20 minutes and then stopped by ice-cooling and addition of the stop reagent (50 mM EDTA, pH 8.0). An aliquot of 50 μl was taken and employed for the determination of the cGMP content using the acetylation protocol of the Amersham cGMP EIA kit. The absorption of the samples was measured at 450 nm (reference wavelength 620 nm) in a microtiter plate reading apparatus. The cGMP concentration was determined by means of a calibration curve, which was obtained under the same experimental conditions.
# n-fold stimulation=[cGMP]test substance/[cGMP]control.
Structure (SMILES),n-fold stimulation at c = 50 μM [1] [fold],melting point [°C]
"CCCCNc1nc(-c2ccc(Cl)cc2)nc2c1CCC2 [Example 30, 2-(4-Chlorophenyl)-4-butylamino-6,7-dihydro-5H-cyclopenta[d]pyrimidine]",6,121
"Cc1ccc(-c2nc3c(c(NC4CCCCC4)n2)CCC3)cc1 [Example 42, 2-(4-Methylphenyl)-4-cyclohexylamino-6,7-dihydro-5H-cyclopenta[d]pyrimidine]",10,163
"Clc1cc(Cl)cc(-c2nc3c(c(NC4CCCC4)n2)CCC3)c1 [Example 50, 2-(3,5-Dichlorophenyl)-4-cyclopentylamino-6,7-dihydro-5H-cyclopenta[d]-pyrimidine]",8,153
"CCCCNc1nc(-c2cc(Cl)cc(Cl)c2)nc2c1CCC2 [Example 49, 2-(3,5-Dichlorophenyl)-4-butylamino-6,7-dihydro-5H-cyclopenta[d]pyrimidine]",5,93
"CCCN(CCC)c1nc(-c2ccc(Cl)cc2)nc2c1CCC2 [Example 35, 2-(4-Chlorophenyl)-4-dipropylamino-6,7-dihydro-5H-cyclopenta[d]pyrimidine]",7,114
"CCCCNc1nc(-c2ccc(C)cc2)nc2c1CCC2 [Example 40, 2-(4-Methylphenyl)-4-butylamino-6,7-dihydro-5H-cyclopenta[d]pyrimidine]",8,133
"Cc1ccc(-c2nc3c(c(N[C@H]4CC[C@H](O)CC4)n2)CCC3)cc1 [Example 43, 2-(4-Methylphenyl)-4-(trans-4-hydroxycyclohexylamino)-6,7-dihydro-5H-cyclopenta[d]pyrimidine]",23,191
"O[C@H]1CC[C@H](Nc2nc(-c3ccc(Cl)cc3)nc3c2CCC3)CC1 [Example 34, 2-(4-Chlorophenyl)-4-(trans-4-hydroxycyclohexylamino)-6,7-dihydro-5H-cyclopenta[d]pyrimidine]",35,216
"CCN(CC)c1nc(-c2ccc(Cl)cc2)nc2c1CCC2.Cl [Example 26, 2-(4-Chlorophenyl)-4-diethylamino-6,7-dihydro-5H-cyclopenta[d]pyrimidine hydrochloride]",5,185
